The results in this text go back to ChEMBL document CHEMBL1201862, “PubChem BioAssay data set” (2004).

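Compound exposure: 48 hours, 5 concentrations, 96-well plates. GI50 is the concentration that inhibits growth by half.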 Activity calls are given as the source filed them. Cut-off read from the data, not from the text of the source: active = GI50 up to about 1.1 µM and inactive = higher. Peptide text beside a SMILES is read from it. * marks the point of attachment. Cbz = O=C(OCc1ccccc1)*

Among the test systems are SK-MEL-28; UO-31; OVCAR-5; EKVX; A498; TK-10; CAKI-1; HCC 2998; SF-295; OVCAR-8; OVCAR-3; SK-MEL-2; HCT-15; SR; UACC-257; NCI-H522; BT-549; NCI/ADR-RES; KM12; SNB-75.
What all share (experiment): growth of human tumour cells (NCI), 48 h

For the compound `C=C(c1ccc2[nH]c(NC(=O)OC)nc2c1)c1cccs1`, the GI50 in the test with SK-MEL-28 was 3.47 µM (inactive); in the test with UO-31, 0.916 µM (active); in the test with OVCAR-5, 2.1 µM (inactive); in the test with EKVX it was 9.46 µM (inactive); in the test with A498, 0.425 µM (active); with TK-10, 0.22 µM (active). Moreover, the GI50 with CAKI-1 is < 0.046 µM (active); in the test on HCC 2998 it was 0.217 µM (active); in the test with SF-295, 0.051 µM (active); in the test on OVCAR-8, 0.299 µM (active); with OVCAR-3, 0.0379 µM (active); with SK-MEL-2, 2.26 µM (inactive). The GI50 in the test on HCT-15 was below 0.0349 µM; with SR, < 0.01 µM (active); with UACC-257, 0.556 µM (active); in the test on NCI-H522 it was 0.0813 µM (active); in the test with BT-549 it was 0.679 µM (active); in the test on NCI/ADR-RES it was 0.0488 µM (active).

Regarding `CCCCCCC(CCl)c1sc(-c2csc(CCNC(=O)OC(C)(C)C)n2)nc1C(=O)OC` (centres undefined), the GI50 in the test on SK-MEL-28 was 28.6 µM (inactive); in the test with UO-31 it was 14.9 µM (inactive); in the test with OVCAR-5 it was 32.1 µM (inactive); in the test on EKVX, 26.6 µM (inactive); in the test on A498 it was 28.8 µM (inactive); in the test with TK-10, 20.4 µM (inactive). Besides, the GI50 in the test on CAKI-1 was 29 µM (inactive); in the test on KM12, 17.8 µM (inactive); with HCC 2998 it was 22.7 µM (inactive); with SF-295, 32.2 µM (inactive); with OVCAR-8, 24.6 µM (inactive); in the test with OVCAR-3, 21.9 µM (inactive). In addition, the GI50 was 11.7 µM (inactive) with SK-MEL-2; 14.1 µM with HCT-15; 3.94 µM (inactive) in the test on SR; 27.1 µM (inactive) in the test on UACC-257; 22 µM (inactive) in the test on NCI-H522; 18.5 µM (inactive) in the test on BT-549. In addition, the GI50 with NCI/ADR-RES was 2.32 µM (inactive).

Consider `O=[N+]([O-])C(=C(Nc1ccccc1)Nc1ccccc1)/C(Cl)=C(\Cl)Br`, for which the GI50 was 12.4 µM (inactive) in the test with SNB-75; 13.6 µM (inactive) in the test on SK-MEL-28; 10.1 µM (inactive) with UO-31; 10.6 µM (inactive) in the test with OVCAR-5; 14.8 µM (inactive) with EKVX; 19.1 µM (inactive) in the test on A498. Besides, the GI50 in the test on KM12 is 12.3 µM (inactive); in the test with HCC 2998 it was 17.1 µM (inactive); in the test on SF-295 it was 14.8 µM (inactive); with OVCAR-8, 16.5 µM (inactive); in the test with OVCAR-3 it was 5.18 µM (inactive); with SK-MEL-2 it was 18 µM (inactive). Besides, the GI50 with HCT-15 was 11.9 µM; in the test on SR, 5.01 µM (inactive); in the test with UACC-257, 14.7 µM (inactive); in the test with NCI-H522, 2.51 µM (inactive); in the test with BT-549, 21.7 µM (inactive); with NCI/ADR-RES, 9.48 µM (inactive).

`COc1ccc2c(c1)OCC1Cc3cccc(OC)c3OC21` (centres undefined): the GI50 in the test on UO-31 is 30.3 µM (inactive); in the test on OVCAR-5, > 100 µM (inactive); in the test with EKVX, 52.2 µM (inactive); with A498 it was > 100 µM (inactive); in the test with TK-10, 40.3 µM (inactive); with CAKI-1, > 100 µM (inactive). Further, the GI50 in the test with KM12 was 65 µM (inactive); in the test with HCC 2998, 93.3 µM (inactive); in the test on SF-295, 64.6 µM (inactive); in the test with OVCAR-8 it was 45.8 µM (inactive); in the test with OVCAR-3, 51.2 µM (inactive); in the test on SK-MEL-2 it was 51.3 µM (inactive). The GI50 in the test on HCT-15 was 48 µM; in the test on SR it was 59.7 µM (inactive); in the test on UACC-257, 36.1 µM (inactive); in the test with NCI-H522, 55.6 µM (inactive); in the test on BT-549, 26.9 µM (inactive); in the test on NCI/ADR-RES it was 31.1 µM (inactive).

In the case of `CC(C)CCn1c(=O)c2c(=O)[nH][nH]c2c2ccccc21`, the GI50 with SNB-75 was > 10 µM (inactive); in the test with SK-MEL-28 it was > 100 µM (inactive); in the test with UO-31, > 100 µM (inactive); in the test on OVCAR-5 it was > 100 µM (inactive); with EKVX, > 100 µM (inactive); in the test on A498, > 100 µM (inactive). Further, the GI50 in the test with TK-10, with KM12, with HCC 2998, in the test on SF-295, in the test on OVCAR-8 and in the test with OVCAR-3 was > 100 µM (inactive) each time. Further, the GI50 is above 100 µM in the test with HCT-15; > 100 µM (inactive) in the test on SR; > 100 µM (inactive) with UACC-257; > 100 µM (inactive) in the test with NCI-H522; > 100 µM (inactive) in the test on BT-549; > 100 µM (inactive) in the test on NCI/ADR-RES.

Turning to `CCNCCNC(=O)c1ccc(Br)cc1`, the GI50 was 63.4 µM (inactive) in the test with SNB-75; > 100 µM (inactive) in the test on SK-MEL-28; > 100 µM (inactive) in the test with UO-31; > 100 µM (inactive) with OVCAR-5; > 100 µM (inactive) with EKVX; > 100 µM (inactive) in the test on A498. Besides, the GI50 in the test on TK-10, with CAKI-1, with KM12, with HCC 2998, in the test on OVCAR-8 and in the test on OVCAR-3 was > 100 µM (inactive) throughout. The GI50 is above 100 µM in the test on HCT-15, > 100 µM (inactive) in the test with SR, > 100 µM (inactive) with BT-549 and > 100 µM (inactive) in the test on NCI/ADR-RES.

For `COc1ccc2nc(-c3ccccc3)c(=O)[nH]c2c1`, the GI50 with SNB-75, in the test with SK-MEL-28, in the test on OVCAR-5, with EKVX, in the test on A498 and with TK-10 was > 100 µM (inactive) each time. Besides, the GI50 was > 100 µM (inactive) in the test with CAKI-1; > 100 µM (inactive) with HCC 2998; > 100 µM (inactive) in the test with SF-295; > 100 µM (inactive) in the test on OVCAR-8; > 100 µM (inactive) with OVCAR-3; above 100 µM in the test on HCT-15. The GI50 with SR, in the test with UACC-257, in the test with NCI-H522, in the test on BT-549 and with NCI/ADR-RES was > 100 µM (inactive) each time.

Regarding `COc1ccc2c(c1)[C@@]13CCN4CC5=CCO[C@H]6CC(=O)N2[C@H]1[C@H]6[C@H]5C[C@H]43`, the GI50 was 80.5 µM (inactive) in the test on SK-MEL-28; > 100 µM (inactive) in the test with UO-31; > 100 µM (inactive) in the test with OVCAR-5; 44.4 µM (inactive) in the test on EKVX; 69.2 µM (inactive) with A498; 76.6 µM (inactive) with TK-10. The GI50 in the test on CAKI-1 was > 100 µM (inactive); with KM12, > 100 µM (inactive); in the test with HCC 2998 it was > 100 µM (inactive); in the test on SF-295 it was 70 µM (inactive); in the test with OVCAR-8, 59.2 µM (inactive); with OVCAR-3, > 100 µM (inactive). Besides, the GI50 with SK-MEL-2 was > 100 µM (inactive); in the test on HCT-15 it was above 100 µM; with SR it was 27.5 µM (inactive); in the test with UACC-257, > 100 µM (inactive); with NCI-H522 it was 72.3 µM (inactive); in the test with BT-549 it was > 100 µM (inactive). For the same compound, the GI50 in the test on NCI/ADR-RES is 47.2 µM (inactive).

As for `Nc1ccc(/N=N\c2ccc(-c3ccc(O)cc3)cc2)c2ccc(S(=O)(=O)O)cc12`, the GI50 in the test on SNB-75 was 77.1 µM (inactive); with SK-MEL-28, > 100 µM (inactive); in the test with UO-31 it was > 100 µM (inactive); with OVCAR-5 it was > 100 µM (inactive); in the test on EKVX, > 100 µM (inactive); with A498, > 100 µM (inactive). The GI50 with TK-10, in the test with CAKI-1, with KM12, with SF-295, in the test with OVCAR-8 and in the test on OVCAR-3 was > 100 µM (inactive) each time. In addition, the GI50 was > 100 µM (inactive) in the test on SK-MEL-2; above 100 µM with HCT-15; > 100 µM (inactive) with SR; > 100 µM (inactive) in the test on UACC-257; > 100 µM (inactive) in the test with NCI-H522; > 100 µM (inactive) in the test on BT-549. In the test with NCI/ADR-RES, the GI50 was > 100 µM (inactive).

In the case of `CC(=O)Oc1ccc2[nH]c3c(C)c4cccc-4ccc3c2c1`, the GI50 was 2.31 µM (inactive) in the test on SK-MEL-28; 1.76 µM (inactive) in the test with UO-31; 2.02 µM (inactive) with OVCAR-5; 2.2 µM (inactive) in the test with EKVX; 2.1 µM (inactive) in the test with A498; 1.87 µM (inactive) in the test on TK-10. For the same compound, the GI50 in the test with CAKI-1 was 1.86 µM (inactive); in the test on KM12, 2.44 µM (inactive); in the test with HCC 2998, 2.18 µM (inactive); in the test with SF-295, 2.02 µM (inactive); in the test with OVCAR-8, 2.1 µM (inactive); in the test with OVCAR-3, 1.62 µM (inactive). Further, the GI50 in the test with SK-MEL-2 was 1.96 µM (inactive); in the test with HCT-15 it was 2.24 µM; in the test on SR, 4.59 µM (inactive); in the test on UACC-257 it was 1.92 µM (inactive); in the test with NCI-H522, 1.63 µM (inactive); in the test with BT-549, 2.34 µM (inactive). In the test with NCI/ADR-RES, the GI50 is 2.28 µM (inactive).

In the case of `CCOC(=O)C(C)NC(=O)C(C)NC(=O)C(C)NC(=O)C(C)NC(=O)C(C)NC(=O)C(C)NC(=O)C(C)NC(=O)OCc1ccccc1` (centres undefined) (Cbz-AAAAAAA-OEt; configuration not given here), the GI50 in the test on SNB-75 was > 100 µM (inactive); in the test on SK-MEL-28, > 100 µM (inactive); with UO-31, > 100 µM (inactive); with OVCAR-5, > 100 µM (inactive); in the test on EKVX it was > 100 µM (inactive); in the test with A498 it was 40.8 µM (inactive). For the same compound, the GI50 with TK-10, in the test on CAKI-1, with KM12, in the test with HCC 2998, in the test with SF-295 and with OVCAR-8 was > 100 µM (inactive) in each case. In addition, the GI50 in the test with OVCAR-3 is > 100 µM (inactive); in the test on HCT-15, above 100 µM; in the test with SR it was > 100 µM (inactive); in the test with NCI-H522, > 100 µM (inactive); with BT-549 it was > 100 µM (inactive); in the test on NCI/ADR-RES, > 100 µM (inactive).
